Measured values from patent US20070249678A1, “SYNTHESIS AND USES OF PYROGLUTAMIC ACID DERIVATIVES” (Prodimed, S.A., priority 2006, published 2007).
“Also recorded” adds a separate entry of the source.

How the values were obtained:
[1] = tested on: Renca cells (renal cell carcinoma); experiment: Effect of the isomers on in vivo tumour growth in mice challenged with Renca cells; conditions: for Tumour surface, overall values (Mean) / Tumour surface, overall values (Median) / Tumour volume, overall values (Mean) / Tumour volume, overall values (Median): 260 ng/mouse i.p. on days 6, 7 and 14, s.c. Renca in Balb/c mice; for Inhibitory effect on in vivo Renca tumour growth (conclusion in words): 260 ng i.p. on days 6, 7 and 14, Balb/c mice
Excerpt: This assay was made in order to check the effect of each stereoisomer on in vivo tumour growth in mice challenged with Renca cells. Their effect was compared with placebo. The stereoisomers assayed were: • Isomer 1: 3R,5S-1-(3-Amino-5-carboxy-2-oxopyrrolidin-3-ylmethyl)pyridinium bromide hidrobromide (9b) • Isomer 2: 3R,5R-1-(3-Amino-5-carboxy-2-oxopyrrolidin-3-ylmethyl)pyridinium bromide hidrobromide (9c) • Isomer 3: 3S,5S-1-(3-Amino-5-carboxy-2-oxopyrrolidin-3-ylmethyl)pyridinium bromide hidrobromide (9a) • Isomer 4: 3 S,5R-1-(3-Amino-5-carboxy-2-oxopyrrolidin-3-ylmethyl)pyridinium bromide hidrobromide (9d)
Renca is a renal cell carcinoma originated in Balb/c mouse strain, and therefore syngeneic in mice with Balb/c genetic background [Melder R J et al., Cancer Immunol. Immunother., 2005, 54:535-547; Felluga B et al., 1969, J. Natl. Cancer Inst. 43:319-333]. Renca is considered a moderate immunogenic tumour and used as suitable model for testing immunointervention approaches [Salup R R, et al., 1992, The Journal of Urology, 147:1120-1123].
Renca cells (CLS, Eppelheim, Germany) were maintained in vitro by serial passages every 3-4 days. Cultures were performed with RPMI medium medium (RPMI, 10% foetal calf serum, 2 mM L-glutamine, non essential amino acids, 1 mM sodium pyruvate, 20 mM HEPES, 80 μg/mL gentamycin; all of them were purchased from Sigma, St. Louis, Mo., USA) by seeding 5×10^6 cells onto 75 cm^2 culture flasks. Tumour cells collected from 48 hour cultures upon trypsinization (Sigma, St. Louis, Mo., USA) were used as source of Renca cells for the studies described below.
Each isomer was tested at the dose levels of 260 ng administered on days 6, 7 and 14 after tumour inoculation.
The treatments were given by intraperitoneal route. The volume inoculated was 0.2 mL/animal. This route was chosen because it is the one described in the original method [Perez S, et al., 2003, Clinical Cancer Research. 9:5776-5785].
Tumours were established by subcutaneous inoculation in the right hind flank. Mice (Balb/c) were inoculated with 0.2 mL containing 105 viable Renca cells. The day of subcutaneous inoculation will be considered Day 0 of the test.
Balb/c mice inoculated with Renca cells were distributed into 5 experimental groups:
Mice were observed daily and the tumour size recorded twice a week. This was carried out by measuring two perpendicular diameters (L/W) with a calliper. These measures were used to obtain both tumour surface and volume:
Tumour surface=L×W (mm^2)
Tumour volume=L×W^2×½(mm^3)
Results were expressed as single values and/or as the mean±SD or median from each experimental group.
A case-control study was performed with treated and control mice in order to determine whether differences between isomers and administration of placebo were present. The data obtained (tumoral surface and volume) were tested for Normal distribution within the groups—Kolmogorov Smimov test p<0,05—. […] The U-test of Mann Withney was chosen for being one of the better known non-parametrical tests, anyway, results for this test are equivalent both to those of Wilcoxon's sum of ranges and Kruskal-Wallis two-groups test.
Due to the high dispersion of data, outlayers (animals beyond percentile 25 or above percentile 75 for tumour surface at day 25) were excluded of the study.

[2] = Solubility observed during purification attempts; format: physicochemical; conditions: mixture of stereoisomers
Excerpt: Also, its immediate precursor BLAS-320(Ac) (1-(1-acetyl-3-acetylamino-5-carboxy-2-oxopyrrolidin-3-ylmethyl)pyridinium acetate) [drawing 7] was synthesized using different procedures.

[3] = day 11 after tumour inoculation
[4] = day 14 after tumour inoculation
[5] = day 18 after tumour inoculation
[6] = day 21 after tumour inoculation
[7] = day 25 after tumour inoculation

## Br.N[C@@]1(C[n+]2ccccc2)C[C@@H](C(=O)O)NC1=O.[Br-] (single isomer, unassigned; isomer 1) [isomer 1, 3R,5S-1-(3-Amino-5-carboxy-2-oxopyrrolidin-3-ylmethyl)pyridinium bromide hidrobromide]
[1]; day 0 after tumour inoculation
  Tumour surface, overall values (Mean): 0 mm^2
  Tumour surface, overall values (Median): 0 mm^2
  Tumour volume, overall values (Mean): 0 mm^3
  Tumour volume, overall values (Median): 0 mm^3
[1]; [3]
  Tumour surface, overall values (Mean): 1.2 mm^2
  Tumour surface, overall values (Median): 0 mm^2
  Tumour volume, overall values (Mean): 1.73 mm^3
  Tumour volume, overall values (Median): 0 mm^3
[1]; [4]
  Tumour surface, overall values (Mean): 14.1 mm^2
  Tumour surface, overall values (Median): 12.5 mm^2
  Tumour volume, overall values (Mean): 36.88 mm^3
  Tumour volume, overall values (Median): 22.75 mm^3
[1]; [5]
  Tumour surface, overall values (Mean): 44.07 mm^2
  Tumour surface, overall values (Median): 36 mm^2
  Tumour volume, overall values (Mean): 174.37 mm^3
  Tumour volume, overall values (Median): 108 mm^3
[1]; [6]
  Tumour surface, overall values (Mean): 86.6 mm^2
  Tumour surface, overall values (Median): 81 mm^2
  Tumour volume, overall values (Mean): 429.07 mm^3
  Tumour volume, overall values (Median): 329.25 mm^3
[1]; [7]
  Tumour surface, overall values (Mean): 149.97 mm^2
  Tumour surface, overall values (Median): 160.5 mm^2
  Tumour volume, overall values (Mean): 895.58 mm^3
  Tumour volume, overall values (Median): 907.5 mm^3

## Br.N[C@@]1(C[n+]2ccccc2)C[C@H](C(=O)O)NC1=O.[Br-] (single isomer, unassigned; isomer 2) [isomer 2, 3R,5R-1-(3-Amino-5-carboxy-2-oxopyrrolidin-3-ylmethyl)pyridinium bromide hidrobromide]
[1]; day 0 after tumour inoculation
  Tumour surface, overall values (Mean): 0 mm^2
  Tumour surface, overall values (Median): 0 mm^2
  Tumour volume, overall values (Mean): 0 mm^3
  Tumour volume, overall values (Median): 0 mm^3
[1]; [3]
  Tumour surface, overall values (Mean): 1.6 mm^2
  Tumour surface, overall values (Median): 0 mm^2
  Tumour volume, overall values (Mean): 2.34 mm^3
  Tumour volume, overall values (Median): 0 mm^3
[1]; [4]
  Tumour surface, overall values (Mean): 14.46 mm^2
  Tumour surface, overall values (Median): 9 mm^2
  Tumour volume, overall values (Mean): 32.05 mm^3
  Tumour volume, overall values (Median): 13.5 mm^3
[1]; [5]
  Tumour surface, overall values (Mean): 55.14 mm^2
  Tumour surface, overall values (Median): 42 mm^2
  Tumour volume, overall values (Mean): 217.43 mm^3
  Tumour volume, overall values (Median): 126 mm^3
[1]; [6]
  Tumour surface, overall values (Mean): 96.86 mm^2
  Tumour surface, overall values (Median): 77 mm^2
  Tumour volume, overall values (Mean): 453.89 mm^3
  Tumour volume, overall values (Median): 278.75 mm^3
[1]; [7]
  Tumour surface, overall values (Mean): 156.53 mm^2
  Tumour surface, overall values (Median): 140 mm^2
  Tumour volume, overall values (Mean): 938.48 mm^3
  Tumour volume, overall values (Median): 613.25 mm^3
[1]; second week after tumour inoculation, 260 ng i.p., animals excluded
  Deaths of mice in treatment group: Two mice from isomer 2 group died for unknown causes

## Br.N[C@]1(C[n+]2ccccc2)C[C@@H](C(=O)O)NC1=O.[Br-] (single isomer, unassigned; isomer 3) [isomer 3, 3S,5S-1-(3-Amino-5-carboxy-2-oxopyrrolidin-3-ylmethyl)pyridinium bromide hidrobromide]
[1]
  Inhibitory effect on in vivo Renca tumour growth (conclusion in words): inhibit the in vivo growth of the renal cell carcinoma (Renca)
[1]; day 0 after tumour inoculation
  Tumour surface, overall values (Mean): 0 mm^2
  Tumour surface, overall values (Median): 0 mm^2
  Tumour volume, overall values (Mean): 0 mm^3
  Tumour volume, overall values (Median): 0 mm^3
[1]; [3]
  Tumour surface, overall values (Mean): 0.3 mm^2
  Tumour surface, overall values (Median): 0 mm^2
  Tumour volume, overall values (Mean): 0.28 mm^3
  Tumour volume, overall values (Median): 0 mm^3
[1]; [4]
  Tumour surface, overall values (Mean): 7.5 mm^2
  Tumour surface, overall values (Median): 4 mm^2
  Tumour volume, overall values (Mean): 14.55 mm^3
  Tumour volume, overall values (Median): 4 mm^3
[1]; [5]
  Tumour surface, overall values (Mean): 31 mm^2
  Tumour surface, overall values (Median): 18 mm^2
  Tumour volume, overall values (Mean): 101.4 mm^3
  Tumour volume, overall values (Median): 36 mm^3
[1]; [6]
  Tumour surface, overall values (Mean): 64.57 mm^2
  Tumour surface, overall values (Median): 45.5 mm^2
  Tumour volume, overall values (Mean): 278.15 mm^3
  Tumour volume, overall values (Median): 148.75 mm^3
[1]; [7]
  Tumour surface, overall values (Mean): 106.17 mm^2
  Tumour surface, overall values (Median): 90 mm^2
  Tumour volume, overall values (Mean): 557.18 mm^3
  Tumour volume, overall values (Median): 405 mm^3
[1]; days 18th and 25th of tumour development, 260 ng i.p.
  p of differences in Renca tumour growth rate vs. placebo (surface or volume), Mann-Whitney U test: < 0.05

## Br.N[C@]1(C[n+]2ccccc2)C[C@H](C(=O)O)NC1=O.[Br-] (single isomer, unassigned; isomer 4) [isomer 4, 3 S,5R-1-(3-Amino-5-carboxy-2-oxopyrrolidin-3-ylmethyl)pyridinium bromide hidrobromide]
[1]
  Inhibitory effect on in vivo Renca tumour growth (conclusion in words): inhibit the in vivo growth of the renal cell carcinoma (Renca); also recorded: highest inhibitory effect on Renca tumour growth
[1]; all days scored after the day 14th of tumour development, 260 ng i.p.
  p of differences in Renca tumour growth rate vs. placebo (surface or volume), Mann-Whitney U test: < 0.01
[1]; day 0 after tumour inoculation
  Tumour surface, overall values (Mean): 0 mm^2
  Tumour surface, overall values (Median): 0 mm^2
  Tumour volume, overall values (Mean): 0 mm^3
  Tumour volume, overall values (Median): 0 mm^3
[1]; [3]
  Tumour surface, overall values (Mean): 0 mm^2
  Tumour surface, overall values (Median): 0 mm^2
  Tumour volume, overall values (Mean): 0 mm^3
  Tumour volume, overall values (Median): 0 mm^3
[1]; [4]
  Tumour surface, overall values (Mean): 2.87 mm^2
  Tumour surface, overall values (Median): 0 mm^2
  Tumour volume, overall values (Mean): 4.73 mm^3
  Tumour volume, overall values (Median): 0 mm^3
[1]; [5]
  Tumour surface, overall values (Mean): 15.47 mm^2
  Tumour surface, overall values (Median): 9 mm^2
  Tumour volume, overall values (Mean): 40.67 mm^3
  Tumour volume, overall values (Median): 13.5 mm^3
[1]; [6]
  Tumour surface, overall values (Mean): 37.37 mm^2
  Tumour surface, overall values (Median): 25 mm^2
  Tumour volume, overall values (Mean): 126.42 mm^3
  Tumour volume, overall values (Median): 62.5 mm^3
[1]; [7]
  Tumour surface, overall values (Mean): 81.3 mm^2
  Tumour surface, overall values (Median): 63.5 mm^2
  Tumour volume, overall values (Mean): 372.82 mm^3
  Tumour volume, overall values (Median): 238.25 mm^3

## CC(=O)NC1(C[n+]2ccccc2)CC(C(=O)O)N(C(C)=O)C1=O (stereo not drawn) [BLAS-320(Ac), 1-(1-acetyl-3-acetylamino-5-carboxy-2-oxopyrrolidin-3-ylmethyl)pyridinium acetate]
[2]
  Solubility (in words): only soluble in water and methanol
